# pKd: −log10 of the molar value.
# Tests used:
# LC3B = LC3B (Homo sapiens, UniProt Q9GZQ8); assay: MST detection of affinity activity with LC3B; type: binding; parameters: His8 (with TEV site) (N); made in house; host or cells: Escherichia coli BL21(DE3)pLysS; conditions: MST; read-out: Kd, equilibrium dissociation constant between the LC3 binding compound and LC3B
# How it was run: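 Microscale thermophoresis uses recombinant GST-LC3B labelled with RED-NHS fluorophore at 500 nM. Buffer is 20 mM HEPES pH 7.4 with 150 mM NaCl. Readings are taken at 40% infrared laser power and 20% LED power.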
# [1] = system: lipid droplets in wild type MEF cells; assay: Reduction of OA-induced lipid droplets in wild type MEF cells (BODIPY 493/503 staining); type: cell-based, mouse; conditions: MEF, unconjugated compound 5 μM
# Method: (5) OA-BSA stock solution was prepared into OA-BSA working solution (50× final concentration, 200 μM), and 40 μl of OA-BSA working solution was added to each well to induce lipid droplets. For the non-OA induction group, 40 μl of 10% BSA solution was added to the control well, and the amount of BSA was the same as that of the experimental group.
# Compounds were formulated into DMSO stock solutions. Stock compounds were diluted with DMSO into the indicated concentrations of working solutions prior to use in the treatment of cells. After induction of the lipid droplets with OA for the indicated time, the test compounds were added to the cells respectively. Control wells were replaced with the equal volume of DMSO. Unless otherwise stated, the compounds were diluted into 10× solutions using the culture medium and added to the culture medium for 24 hours of incubation. Cells were treated with compounds in a 37° C. incubator with 5% CO2.
# (3) The original medium in the multi-well plates was removed, washed and the cells was fixed, 1 ml of the BODIPY solution prepared in (1) was added to each well, and stained for 15 minutes. The staining solution was aspirated and washed with 1×PBS.
# (5) The coverslips laid in the multi-well plates were removed, and imaged with the Zeiss 880 confocal microscope after mounted, and analyzed the size and number of lipid droplets with ImageJ.
# Wild type MEF cells were cultured in a DMEM culture medium containing 10% FBS. Cells were plated according to the method as described above (12 well plate was plated with aseptic treated slides). When cells grew to a confluence of 60-70%, lipid droplets were induced with OA for 30 h according to the method as described above.
# At the time point of 6th hour after initiation of induction, the cells were treated (treated for 24 hours) with Compound 1A or Compound 2A (compound concentrations were 50 μM, 15.8 μM, 5 μM, 1.58 μM, 0.5 μM, 0.158 μM) according to the method as described above.
# db/db mice = assay: Effect of the compound on db/db mouse; type: in vivo; conditions: 30 mg/kg ip, 8 mice per group
# From the text: Experimental animals: nineteen-week-old db/db male mice (C57BL/6J-Lepr^db/Lepr^db) were obtained from Shanghai Model Organisms Co., Ltd., and acclimatized for at least 1 week before experiments. The mice had ad libitum access to standard chow and water.
# Normal control: The C57BL/6 male mice fed on standard irradiated chow diet (Shuyishuer Inc. cat. no. D12450J) from Changzhou Shuyishuer Biotechnology Co., Ltd. (Shuyishuer Inc.) were used as the normal control.
# Mice were randomly divided into 7 groups, wherein 8 mice in each group, and the mice in each group were subjected to intraperitoneal injection to administer: (1) only vehicle (no DMSO) group: 0% DMSO+39% PEG300 (Selleck, cat. no. S6704)+5% Tween-80 (Selleck, cat. no. S6702)+56% distilled water, (2) DMSO group: 1% DMSO+39% PEG300+5% Tween-80+55% H2O (DMSO vehicle), (3) C3 group: Compound 3A was in DMSO vehicle, (4) C4 group: Compound 4A in DMSO vehicle, (5) SIII group: Sudan III DMSO vehicle, (6) GW5074 group: Compound A1 in DMSO vehicle, (7) DP group: Compound A5 in DMSO vehicle. For groups (3)-(7), the compound (30 mg/kg, administration volume 150 μL) was administered through intraperitoneally injection for consecutive 2 weeks, and once a day. The food and water intake were measured with an analytical electronic balance.
# Bodyweight was weighed every day.
# If time permitted, tail vein blood (30-50 μL) was collected every 1-3 days.
# 24 hours after the time point of the last injection, end point maxillary surface blood sampling was performed on each mouse. All mice were Euthanized by cervical dislocation, and then tissue sample (e.g., liver samples) were obtained and stored in Eppendorf tubes at −80° C. for assay.
# 12 days after initiation of administration, each mouse was scanned by a minispec nuclear magnetic resonance (NMR) instrument (Bruker LF50 II “Minispec” body composition analyzer, Bruker Optics) that was designed for experimental animals, and based on the measurement of solid and liquid parts of the samples, the body fat and lean body weight were determined by this device.
# Serum: Tail vein blood samples (30-50 μL) were left to coagulate in […] blood collection tubes (Jiangsu Kangjian Medical Products Co., Ltd., model KJ002) at room temperature without interference, and then centrifuged at 2,000×g for 10 minutes at 4° C. to remove the clot. Supernatant was collected to obtain the serum.
# Liver: Liver samples were obtained as described in (2). 100 mg of liver tissue was homogenized in 0.9 mL of absolute alcohol under ice-cold conditions, and then centrifuged (2,500 r.p.m/min, 10 min). Supernatant was collected, and then stored at −80° C.
# The kits were used according to the instruction from manufacturer (TAG: TG kit, cat. no. A110-1-1; TC: T-CHO kit, cat. no. A111-1. FFA: NEFA kit, cat. No. A042-2-1; they were all from Nanjing Jiancheng Bioengineering Institute). TAG, TC and FFA levels in serum and liver samples were determined.
# According to the lipidomic method as described above, the contents of liver total lipid, glycerolipid, sterol lipid, neutral sphingolipid and polar lipid were analyzed. The log 2-fold change (log2 FC) and statistical significance (p-value) relative to the DMSO group were calculated.
# [2] = system: lipid droplets in human normal liver cell line QSG7701; assay: Endogenous lipid droplets in human normal liver cell line QSG7701; type: cell-based; conditions: QSG7701, no induction, 5 μM, 24 h
# Method: 10% FBS+90% RPMI 1640 culture medium was used for cultivation, cell incubator culture condition of 37° C. and 5% CO2 was used. Cells were plated as 50 thousands/well (12 well plate was plated with aseptic treated slides). When cells grew to a confluence of 80-90%, the compound (Compound 1A or Compound 2A, at a concentration of 5 μM) was added for treatment, and LC3 binding Compound A1, A5, lipid droplet probe Sudan IV as well as DMSO acted as a control. […]. In the compounds of present disclosure, LC3 binding moiety was covalently linked with lipid droplet binding moiety, and thus could achieve the effect of reducing liver cell endogenous lipid droplet.
smiles,measurement,setting,value
"O=C1Nc2ccc(I)cc2C1=Cc1cc(Br)c(O)c(Br)c1 [Compound A1, 3-(3,5-dibromo-4-hydroxylbenzylidene)-5-iodoindolin-2-one, reference compound]",pKd,LC3B,5.32
same,lipid droplets (number and size),[1],did not significantly decrease or become smaller
same,mice died in the experiment,db/db mice,One mouse
same,endogenous lipid droplets (amount),[2],no significant effect

# From US12582720B2, “Compound for preventing or treating lipid metabolism-related diseases” (Fudan University, priority 2020, dated 2026)
